C=C[C@]1(C)C[C@@H](OC(=O)CSC(C)(C)CNC(=O)[C@H](N)C(C)C)[C@]2(C)[C@H](C)CC[C@]3(CCC(=O)[C@H]32)[C@@H](C)[C@@H]1O.Cl
solubility (mole fraction)
Conditions	278.15 K	283.15 K	288.15 K	293.15 K	298.15 K	303.15 K	308.15 K	313.15 K
in ethanol	0.0309	0.038	0.0432	0.0506	0.0601	0.0713	0.0837	0.101
in water	0.00162	0.00321	0.00545	0.00853	0.0135	0.0214	0.0344	0.0486
